Source: PMC9481570, “A small molecule antagonist of SMN disrupts the interaction between SMN and RNAP II” (Nature Communications, 2022)

Assays:
[1] = target: T1, SMN-RNAP II (GFP-POLR2D) interaction (Homo sapiens, UniProt Q16637); assay: Coimmunoprecipitation of SMN with GFP-POLR2D in HEK293 cells; format: cell-based; details: series of concentrations, 72 h
T1 construct: endogenous in cells; host or cells: HEK293
Experimental: (§1) HEK293 cells (ATCC, CRL-1573) were grown in DMEM (SLRI media facility) plus 10% FBS (Sigma, F1051). For analysis of SMN chemical antagonists, HEK293 cells were treated with DMSO or a series of concentrations (0, 2, 6, 10, 20, 30, 40, and 80 μM) of compound 1, compound 2 or negative compound 15 for 72 h. CRISPR-mediated SMN1 gene knockout was performed according to our previous study. Briefly, 2 μg of CRISPR/Cas9 plasmid (pCMV-Cas9-GFP), which expresses scrambled guide RNA, or guide RNA that targets the SMN1 gene exon1 (gRNA target sequence: […]) or exon3 (gRNA target sequence: […]) was transfected into HEK293 cells. Cells were sorted by BD FACSAria flow cytometry at Donnelly Center, University of Toronto 24 h after transfection, and single GFP-positive cells were seeded into a 48-well plate. The expression levels of SMN in each clone were detected by immunofluorescence. The transfection of GFP-RNase H1 R-loop-binding domain (GFP-HB) for R-loop detection into HEK293 cells was performed with the FuGENE Transfection reagent (Roche, E269A).
The experiments were performed following procedure as previously described with minor modifications. […]

[2] = tested on: R-loops at ACTB gene locus; assay: R-loop DNA immunoprecipitation with GFP-HB along ACTB locus; format: cell-based, human; details: for GFP-HB DNA immunoprecipitation qPCR, ACTB position 332 / GFP-HB DNA immunoprecipitation qPCR, ACTB position 1671 / GFP-HB DNA immunoprecipitation qPCR, ACTB position 3560 / GFP-HB DNA immunoprecipitation qPCR, ACTB position 3752 / GFP-HB DNA immunoprecipitation qPCR, ACTB position 4657 / GFP-HB DNA immunoprecipitation qPCR, ACTB position 5590 / GFP-HB DNA immunoprecipitation qPCR, ACTB position -72: HEK293 cells transfected with GFP-HB; for R-loop signals at the 3′-end of the ACTB gene: HEK293 cells, GFP-HB DNA immunoprecipitation
Excerpt: Fig. 4 Effects of SMN antagonists on the interaction between SMN and RNAP II, RNAP II pause, and R-loop accumulation. a SMN antagonists disrupt binding of SMN to RNAP II. Data shown are representative of three independent experiments. b Illustration of ACTB gene and the qPCR amplification positions. c SMN antagonists reduce SMN association at ACTB gene locus. Quantification of SMN qPCR data from ChIP experiments using SMN antibody at the indicated ACTB amplification positions. The SMN levels in DMSO controls were set as 100%. d SMN antagonists lead to RNAP II pause. Quantification of RNAP II qPCR data from ChIP experiments using POLR2A antibody at the indicated ACTB amplification positions. e SMN knockout (KO) leads to R-loop accumulation. Representative single-plane images of Z-stacks of the R-loop levels in scramble vs SMN KO cells of three independent experiments. Scale bar: 5 μm. f Global nuclear R-loop accumulation in SMN KO cells. g SMN antagonists cause global nuclear R-loop accumulation. h SMN antagonists lead to R-loop accumulation at ACTB gene locus. Quantified DNA immunoprecipitation using primers along ACTB locus by using GFP antibody, in cell extracts that were transfected with GFP-RNase H1 R-loop-binding domain (GFP-HB) fusion construct for R-loop detection. a–h HEK293 cells; c, d, h data were presented as the mean ± S.E.M. of three independent experiments (*P < 0.05, **P < 0.01, ***P < 0.001 for the two-tailed Student’s t-test); f, g scatter plots representing data from single-cell and R-loop immunofluorescence analysis (number of cells = 377, 332, 295, 262, 265 for scramble, SMN KO, DMSO, Cmpd 1, Cmpd 2 condition, respectively; Mean ± Quartiles; ****P < 0.0001 for the two-tailed Mann–Whitney test; a.u.: arbitrary units). Source data are provided as a Source Data file.
as §1
(§2) ChIP was performed using the EZ-ChIP™ A - Chromatin Immunoprecipitation Kit (Millipore, 17-371) according to the manufacturer’s instruction. Antibodies were used with a range of 1–2 μg, and IgG (Millipore, polyclonal antibody, 12-370) was used as a background control. After immunoprecipitation, genomic DNA was de-crosslinked in ChIP elution buffer containing 5 M NaCl at 65 °C overnight and purified with the Qiaex II kit (Qiagen, 20021), and eluted in water for PCR amplification. Immunoprecipitated and input DNAs were used as templates for qPCR. The qPCR primer sequences for ACTB gene are the same as described earlier[9] and shown in the Supplementary Table 2. For analysis of SMN chemical antagonists, HEK293 cells were treated with DMSO, compound 1 or compound 2 (a final concentration of 20 μM) for 72 h, before processing for ChIP.

[3] = tested on: RNAP II occupancy at ACTB gene; assay: RNAP II (POLR2A) ChIP-qPCR along the ACTB gene; format: cell-based, human; details: 72 h; for POLR2A ChIP-qPCR, ACTB position 332 / POLR2A ChIP-qPCR, ACTB position 1671 / POLR2A ChIP-qPCR, ACTB position 2911 / POLR2A ChIP-qPCR, ACTB position 3560 / POLR2A ChIP-qPCR, ACTB position 3752 / POLR2A ChIP-qPCR, ACTB position 4657 / POLR2A ChIP-qPCR, ACTB position 5590 / POLR2A ChIP-qPCR, ACTB position -72: HEK293, 20 μM; for occupancy levels of RNAP II at the promoter regions and 3′-end of the ACTB gene: HEK293 cells, 20 µM
Experimental: as §2

T1 sequence (Q16637 2-294 limits assumed): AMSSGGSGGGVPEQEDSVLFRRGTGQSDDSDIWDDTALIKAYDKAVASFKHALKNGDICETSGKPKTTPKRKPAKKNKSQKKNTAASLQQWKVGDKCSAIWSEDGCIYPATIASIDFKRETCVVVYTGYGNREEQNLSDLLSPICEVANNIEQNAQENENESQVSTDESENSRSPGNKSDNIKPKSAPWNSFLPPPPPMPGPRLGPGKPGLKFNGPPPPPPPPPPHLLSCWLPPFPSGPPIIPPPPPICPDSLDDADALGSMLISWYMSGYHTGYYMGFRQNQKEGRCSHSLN

| SMILES | coimmunoprecipitation of SMN with GFP fusion protein of POLR2D [1] | GFP-HB DNA immunoprecipitation qPCR, ACTB position 332 [2] | GFP-HB DNA immunoprecipitation qPCR, ACTB position 1671 [2] | GFP-HB DNA immunoprecipitation qPCR, ACTB position 3560 [2] | GFP-HB DNA immunoprecipitation qPCR, ACTB position 3752 [2] | GFP-HB DNA immunoprecipitation qPCR, ACTB position 4657 [2] | GFP-HB DNA immunoprecipitation qPCR, ACTB position 5590 [2] | GFP-HB DNA immunoprecipitation qPCR, ACTB position -72 [2] | R-loop signals at the 3′-end of the ACTB gene [2] | POLR2A ChIP-qPCR, ACTB position 332 [3] | POLR2A ChIP-qPCR, ACTB position 1671 [3] | POLR2A ChIP-qPCR, ACTB position 2911 [3] | POLR2A ChIP-qPCR, ACTB position 3560 [3] | POLR2A ChIP-qPCR, ACTB position 3752 [3] | POLR2A ChIP-qPCR, ACTB position 4657 [3] | POLR2A ChIP-qPCR, ACTB position 5590 [3] | POLR2A ChIP-qPCR, ACTB position -72 [3] | occupancy levels of RNAP II at the promoter regions and 3′-end of the ACTB gene [3] |
| --- | --- | --- | --- | --- | --- | --- | --- | --- | --- | --- | --- | --- | --- | --- | --- | --- | --- | --- |
| Cn1c2c(c(=N)c3c1CCC3)CCC2 [Compound 1, 4-methyl-2,3,4,5,6,7-hexahydrodicyclopenta[b,e]pyridin-8(1H)-imine] | inhibited | 0.009604 | 0.01285 | 0.03192 | 0.04162 | 0.02409 | 0.01303 | 0.00357 | significantly increased | 0.1628 | 0.1331 | 0.08894 | 0.1246 | 0.2307 | 0.1056 | 0.1381 | 0.4274 | significantly increased |
| CCCn1c2c(c(=N)c3c1CCC3)CCC2 [Compound 2, 4-propyl-2,3,4,5,6,7-hexahydrodicyclopenta[b,e]pyridin-8(1H)-imine] | inhibited | 0.008454 | 0.01239 | 0.02386 | 0.02558 | 0.01308 | 0.01171 | 0.004979 | significantly increased | 0.1333 | 0.1287 | 0.06481 | 0.09661 | 0.2124 | 0.1677 | 0.1104 | 0.5589 | significantly increased |
